Assay results from patent US20220218806A1, “PEPTIDES AND CONJUGATES FOR TREATMENT OF ARTHRITIS” (CRL-SCI Corporation, priority 2019, published 2022).
“Also recorded” adds a separate entry of the source. Where two headings read alike, the source gives them in different places. Square brackets hold non-standard residues; d marks the D form. Ends that are not written are not given here. Cit = NC(=O)NCCC[C@H](N)C(=O)O

Tests used:
[1] = in mice; cited from earlier work
[2] = in humans; cited from earlier work
[3] = system: spleen cells; assay: Cytokines secreted by rhG1-stimulated spleen cell cultures (MagPix); assay type: cell-based, BALB/c mice; conditions: 7.5 μg/ml rhG1 4 days, stimulated less non-stimulated
Procedure: (§1) Animals were euthanized on day 35 after the first control or LEAPS vaccination, and sera was collected. For histopathology, hind limbs (from 5 mice/treatment groups plus 3 normal mice limbs) were dissected and fixed in 10% buffered formalin. The specimens were embedded in paraffin and sectioned. Adjacent tissue sections were stained separately with TB and HE. Microscopic analysis and scoring of joint damage were carried out independently under code by Bolder BioPath. Serum anti-LEAPS peptide antibody levels were determined by ELISA using Neutavidin plates and Biotin labeled peptides for loading onto plates. To determine cytokine production by spleen cell cultures, after a 4-day stimulation of spleen cells with 7.5 μg/ml rhG1 (or no treatment as control), cytokines secreted into the culture media were assayed by MagPix as 9-plex or 6-plex kits from R&D Systems. For intracellular cytokines and FoxP3 detection, spleen cells from 5 mice from each group were cultured with rhG1 for 4 days. The cells were treated with PMA, ionomycin, and GolgiStop for 4 hours, stained for cell surface markers and intracellular cytokines or Foxp3. Samples were run on a FACS Canto flow cytometer and the results analyzed by FACS Diva software. Statistical analysis of data was done using GraphPad Prism 7 software package. Nonparametric and multiple comparison test were conducted as described. […]

[4] = system: GIA model of RA; assay: Visual arthritis score (VAS) after therapeutic LEAPS vaccination in rhG1-induced arthritis; assay type: in vivo, BALB/c mice; conditions: overall conclusion
[5] = system: GIA model of RA; assay: Histopathology of hind limbs (ankles, hind paws) of diseased mice after vaccination; assay type: in vivo, BALB/c mice
[6] = system: beDerG-PG70, bePG275cit, beOVA-OR8, beDerG-PG275cit, bePG70, beDerG-GGG; assay: Serum anti-LEAPS peptide antibody ELISA (biotinylated peptides on NeutrAvidin plates); assay type: in vivo, BALB/c mice; conditions: sera of vaccinated mice, day 35
[7] = system: CD4+ spleen T cells; assay: Intracellular cytokines and FoxP3 in spleen T cells by flow cytometry; assay type: cell-based, BALB/c mice
Procedure: as §1

[8] = ankles, 40x magnification, day 35
[9] = hind paws, digit joints, 16x magnification

For “MDMCSAGWLADCitSVR-amide (MDMCSAGWLAD[Cit]SVR-NH2; not fully specified) [PG275Cit]”, the Immunogenicity of epitope [1] is listed as “more immunogenic than PG275” and the Immunogenicity of epitope [2] is listed as “more immunogenic than PG275”.

For “ATEGRVRVNSAYQDK-amide (ATEGRVRVNSAYQDK-NH2) [PG70, proteoglycan aggrecan (G1) residues 70-84]”, the Immunogenicity of epitope [1] is given as “more immunogenic than PG70Cit”.

For “DGQEEKAGVVSTGLIGGGMDMCSAGWLADCitSVR-amide (DGQEEKAGVVSTGLIGGGMDMCSAGWLAD[Cit]SVR-NH2; not fully specified) [DerG-PG275Cit]”, the “Net secreted IFNγ” value [3] was “induced”, the “Net secreted IL17A” value [3] was “induced” and the “Therapeutic effect / protection in the GIA model of RA” value [4] was “therapeutic in the GIA model of RA with high efficacy”. The “Cartilage damage, ankle histopathology” value [5, 8] was “mild”, the “Inflammation, ankle histopathology” value [5, 8] was “moderate” and the “Joints affected, ankle histopathology” value [5, 8] was “the ankle and several digit joints”. For the same substance, the “Joints affected, hind paw histopathology” value ([5]; hind paws, 16x magnification) was “several digit joints”, the “Cartilage damage, hind paw histopathology” value [5, 9] was “mild” and the “Inflammation, hind paw histopathology” value [5, 9] was “moderate”. For the same substance, the “Serum antibodies to vaccine peptides (OD 450 nm)” value [6] was “does not induce antibodies to either DerG or PG275Cit or the conjugate; also recorded: induced antibodies against neither the DerG element nor the PG275Cit element” and the “Treg cell activation (FoxP3)” value ([7]; CD4+ spleen T cells, rhG1 4 days) was “appeared to activate Treg cells”.

With “GQEEKAGVVSTGLIGGGMDMCSAGWLADRSVR-NH2 [DerG-PG275]” the “Therapeutic effect / protection in the GIA model of RA” value [4] was “can provide protection alone” and the “Modulation of Th2, Treg, Th1 cells and cytokines” value ([7]; overall conclusion) was “does not appear to up modulate Th2 or Treg or Th1 cells or cytokines”.
